In patent publication US4060524A, “6-Acylamido-2,2-dimethyl-3-(pyrimidin-4,6-dione-2-yl)penams” (Pfizer Inc., priority 1976, dated 1977):
Converted amounts (≈) assume the structure as drawn.

Key:
Experiment in all cases: in vitro MIC, two-fold serial dilution in brain-heart infusion medium
Assay type in all cases: cell-based
[1] = test system: Staphylococcus aureus 01A099
Experimental: (§1) The in vitro activity of the herein-described compounds renders them useful for topical application in the form of ointments, creams and the like, or for sterilization purposes, e.g., sickroom utensils. For topical application, the dosage level is on the order of from about 10 to 200 mg./kg./day.
(§2) The in vitro (MIC) values for 6-(phenylacetamido)-2,2-dimethyl-3-(pyrimidin-4,6-dione-2-yl)penam against several organisms is presented below: […]

[2] = test system: Streptococcus pyogenes 02C203
Experimental: as §1, §2

[3] = test system: Staphylococcus aureus 01AA005
Experimental: as §1, §2

[4] = test system: Pasteurella multocida 59A001
Experimental: as §1, §2

- MIC [1]: 50 µg/mL (≈ 125 µM)
- MIC [2]: 3.12 µg/mL (≈ 7.79 µM)
- MIC [3]: 50 µg/mL (≈ 125 µM)
- MIC [4]: 50 µg/mL (≈ 125 µM)
SMILES: CC1(C)S[C@@H]2[C@H](NC(=O)Cc3ccccc3)C(=O)N2[C@H]1C1=NC(=O)CC(=O)N1 [6-Phenylacetamido-2,2-dimethyl-3-(pyrimidin-4,6-dione-2yl)penam]
